This is an account of results in patent US20250248998A1, “LRRK2 Inhibitors” (Brenig Therapeutics, Inc., priority 2022, published 2025).

Experiment [1] addresses T1, LRRK2 WT (Homo sapiens, UniProt Q5S007). The experiment in a line: Enzymatic activity inhibition against LRRK2 WT (ADP-Glo kinase assay, LRRKtide substrate). The class given is biochemical. On the set-up: purchased SignalChem Biotech, Inc. L10-11G-10. The note with it: recombinant LRRK2 WT 36 nM, ATP, 1 h at rt, average Ki. On the procedure:
Example B. Primary Assays Used to Determine Potency of the LRRK2 Inhibition
Assay for Determining Enzymatic Activity Inhibition Against LRRK2 WT.
Compound activity was determined using recombinant LRRK2 WT protein (SignalChem Biotech, Inc., Cat #L10-11G-10) and LRRKtide substrate (SignalChem Biotech, Inc., Cat #L10-58) in an in vitro enzymatic reaction. The enzymatic reaction was carried out in assay buffer (40 mM TRIS-HCl pH 7.4, 20 mM MgCl2, 0.05 mM DTT, 0.1 mg/mL BSA). The compounds were dispensed into a 384 well Diamond Well Plate (Axigen, Cat #P-384-120SQ-C-S) using the Biomek FX liquid handling system at 80× solutions of compounds in DMSO. The 2× Protein-Substrate mix (final concentration 36 nM of LRRK2 WT and 0.8 μg/μL of LRRKtide) was prepared in the 1× Assay buffer and 4 μL of mixture per well was added into the 384-well white Reaction plate with NBS (Corning, Cat #CLS4513). The 4 μL of LRRKtide substrate w/o LRRK2 WT in the 1× buffer was used for a negative control. Plates were centrifuged for 1 min at 200 g. Next the compounds were added to Reaction plate using Biomek station via following steps: 1 μL of 80× compounds (in DMSO) were mixed thoroughly with 39 μL of 2×10 μM ATP in Assay Buffer, then 4 μL of this mixture was added to Reaction plate with 4 μL of Protein-Substrate mix. Plates were centrifuged for 1 min at 200 g and incubated for 1 hour at rt. Then, 4 μL per well of ADP-Glo reagent (Promega, ADP-Glo™ Kinase Assay, Cat #V9102) was added. Plates were incubated for 30 minutes at rt. Then, 8 μL per well of Kinase detection reagent (Promega, ADP-Glo™ Kinase Assay, Cat #V9102) was added and the luminescence signal was measured with a microplate reader. The % inhibition was then used to calculate the Ki values. The average Ki values are shown in Table B, wherein “A” corresponds to Ki<10.0 nM, “B” corresponds to 10.0 nM K Ki<20.0 nM, “C” 20.0 nM K Ki<50.0 nM, “D” corresponds to 50.0 nM K Ki<100.0 nM and “E” corresponds to Ki>100.0 nM.
Background: ADP-Glo first removes unused ATP, then detects ADP through luciferase.
Target sequence in this assay (Q5S007 970-2527 limits assumed): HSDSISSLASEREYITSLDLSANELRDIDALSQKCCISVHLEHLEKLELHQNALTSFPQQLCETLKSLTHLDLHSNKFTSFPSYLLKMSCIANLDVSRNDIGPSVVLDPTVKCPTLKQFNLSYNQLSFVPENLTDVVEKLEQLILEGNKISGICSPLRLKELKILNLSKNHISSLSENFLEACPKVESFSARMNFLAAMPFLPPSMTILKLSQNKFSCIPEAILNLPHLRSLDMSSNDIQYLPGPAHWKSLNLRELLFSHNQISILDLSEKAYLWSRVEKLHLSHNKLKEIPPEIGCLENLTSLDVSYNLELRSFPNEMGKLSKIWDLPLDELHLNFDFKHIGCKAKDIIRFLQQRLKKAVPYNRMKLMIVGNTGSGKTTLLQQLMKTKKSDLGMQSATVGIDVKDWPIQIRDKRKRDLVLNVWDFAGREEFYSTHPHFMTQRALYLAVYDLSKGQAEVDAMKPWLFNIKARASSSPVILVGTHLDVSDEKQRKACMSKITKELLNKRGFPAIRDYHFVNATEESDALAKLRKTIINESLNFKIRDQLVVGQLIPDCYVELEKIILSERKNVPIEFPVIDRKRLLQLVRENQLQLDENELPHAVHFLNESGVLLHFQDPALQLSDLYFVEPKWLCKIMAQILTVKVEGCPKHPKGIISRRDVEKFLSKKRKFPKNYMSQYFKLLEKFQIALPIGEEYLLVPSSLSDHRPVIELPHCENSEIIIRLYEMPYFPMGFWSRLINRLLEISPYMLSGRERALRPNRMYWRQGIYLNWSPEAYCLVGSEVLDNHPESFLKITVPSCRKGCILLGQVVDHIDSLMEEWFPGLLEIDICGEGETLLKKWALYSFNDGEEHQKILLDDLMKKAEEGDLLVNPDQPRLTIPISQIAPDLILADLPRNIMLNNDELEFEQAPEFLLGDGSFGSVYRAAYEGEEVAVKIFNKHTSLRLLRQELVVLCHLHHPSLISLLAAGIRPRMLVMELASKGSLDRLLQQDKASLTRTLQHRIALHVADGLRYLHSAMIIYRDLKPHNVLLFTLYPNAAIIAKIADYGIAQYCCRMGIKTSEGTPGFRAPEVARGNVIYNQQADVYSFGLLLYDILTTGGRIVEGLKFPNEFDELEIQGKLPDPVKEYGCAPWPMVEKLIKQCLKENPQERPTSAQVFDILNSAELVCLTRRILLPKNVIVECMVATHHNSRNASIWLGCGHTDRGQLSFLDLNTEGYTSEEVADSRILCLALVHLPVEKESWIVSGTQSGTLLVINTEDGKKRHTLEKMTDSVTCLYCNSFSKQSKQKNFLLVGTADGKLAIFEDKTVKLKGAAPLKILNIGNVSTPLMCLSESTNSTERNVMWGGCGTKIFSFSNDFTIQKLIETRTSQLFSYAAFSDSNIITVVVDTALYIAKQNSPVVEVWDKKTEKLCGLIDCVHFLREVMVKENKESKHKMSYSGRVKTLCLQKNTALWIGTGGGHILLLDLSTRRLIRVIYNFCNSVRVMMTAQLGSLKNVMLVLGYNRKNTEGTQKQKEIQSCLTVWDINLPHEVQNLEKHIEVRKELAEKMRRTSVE

The target in experiment [2] is T2, LRRK2[G2019S] (Homo sapiens, UniProt Q5S007, G2019S). Briefly: Enzymatic activity inhibition against LRRK2[G2019S] (ADP-Glo kinase assay, LRRKtide substrate). On the set-up: purchased SignalChem Biotech, Inc. L10-12GG-10. The note with it: recombinant LRRK2[G2019S] 36 nM, ATP, 1 h at rt, average Ki. The class given is biochemical. On the procedure: Example A. Primary Assays Used to Determine Potency of the LRRK2 Inhibition
Assay for Determining Enzymatic Activity Inhibition Against LRRK2[G2019S].
Compound activity was determined using recombinant LRRK2[G2019S] protein (SignalChem Biotech, Inc., Cat #L10-12GG-10) and LRRKtide substrate (SignalChem Biotech, Inc., Cat #L10-58) in an in vitro enzymatic reaction. The enzymatic reaction was carried out in assay buffer (40 mM TRIS-HCl pH 7.4, 20 mM MgCl2, 0.05 mM DTT, 0.1 mg/mL BSA). The compounds were dispensed into a 384 well Diamond Well Plate (Axigen, Cat #P-384-120SQ-C-S) using the Biomek FX liquid handling system at the 80× solutions of compounds in DMSO. The 2× Protein-Substrate mix (final concentration 36 nM of LRRK2[G2019S] and 0.8 μg/μL of LRRKtide) was prepared in 1× Assay buffer and 4 μL of mixture per well was added into the 384-well white Reaction plate with NBS (Corning, Cat #CLS4513). The 4 μL of LRRKtide substrate w/o LRRK2[G2019S] in the 1× buffer was used for a negative control. Plates were centrifuged for 1 min at 200 g. Next the compounds were added to the reaction plate using Biomek station via following steps: 1 μL of 80× compounds (in DMSO) were mixed thoroughly with 39 μL of 2×10 μM ATP in Assay Buffer, then 4 μL of this mixture was added to Reaction plate with 4 μL of Protein-Substrate mix. Plates were centrifuged for 1 min at 200 g and incubated for 1 h at rt. Then, 4 μL per well of ADP-Glo reagent (Promega, ADP-Glo™ Kinase Assay, Cat #V9102) was added. Plates were incubated for 30 min at rt. Then, 8 μL per well of Kinase detection reagent (Promega, ADP-Glo™ Kinase Assay, Cat #V9102) was added and the luminescence signal was measured with a microplate reader. The luminescence signal was detected with CLARIOstar Plus (BMG LABTECH) microplate reader. The % inhibition was then used to calculate the Ki values. The average Ki values are shown in Table A, wherein “A” corresponds to Ki<5.0 nM, “B” corresponds to 5.0 nM≤Ki<10.0 nM, “C” 10.0 nM≤Ki<50.0 nM, “D” corresponds to 50.0 nM≤Ki<100.0 nM and “E” corresponds to Ki>100.0 nM.
Target sequence in this assay (Q5S007 970-2527 G2019S limits assumed): as the sequence (Q5S007 970-2527 limits assumed) above, with G1050S counted along it

In experiment [3] the target is T2, LRRK2[G2019S]. Briefly: Cell-based NanoBRET target engagement assay in HEK293 cells transfected with LRRK2 (G2019S)-NanoLuc fusion vector. Also on record: expressed in transfected cells; host or cells: HEK293 (ATCC). The note with it: compound treatment 1 h. The procedure:
(§1) Example C. Cell-Based NanoBRET Target Engagement Assay in 11EK293 Cells Transiently Transfected with LRRK2 WT- or LRRK2 (G2019S)-Nano Luc Fusion Vector
(§2) H1EK293 (ATCC) cells were transfected with […] LRRK2 WT or LRRK2 (G2019S) and 9 μg transfection carrier DNA. The transfected cells were treated with the compounds (starting at 1 μM, 10-dose with 3-fold dilution) and reference compounds CEP-701 or Staurosporine (starting at 1 μM, 10-dose with 3-fold dilution); compound treatment time: 1 h. LRRK2 WT and LRRK2 (G2019S) target engagement was measured by NanoBRET assay. Curve fits were performed only when % NanoBret signal at the highest concentration of compounds was less than […]. Assay format: 384-well format, 4000 cells/well. The IC50 values are shown in Table C, wherein “A” corresponds to IC50≤50.0 nM, “B” corresponds to 50.0 nM≤IC50<100.0 nM, “C” corresponds to 100.0 nM≤IC50.
(In general: Bioluminescence resonance energy transfer reports proximity on the nanometre scale.)
Target sequence in this assay (Q5S007 whole entry G2019S): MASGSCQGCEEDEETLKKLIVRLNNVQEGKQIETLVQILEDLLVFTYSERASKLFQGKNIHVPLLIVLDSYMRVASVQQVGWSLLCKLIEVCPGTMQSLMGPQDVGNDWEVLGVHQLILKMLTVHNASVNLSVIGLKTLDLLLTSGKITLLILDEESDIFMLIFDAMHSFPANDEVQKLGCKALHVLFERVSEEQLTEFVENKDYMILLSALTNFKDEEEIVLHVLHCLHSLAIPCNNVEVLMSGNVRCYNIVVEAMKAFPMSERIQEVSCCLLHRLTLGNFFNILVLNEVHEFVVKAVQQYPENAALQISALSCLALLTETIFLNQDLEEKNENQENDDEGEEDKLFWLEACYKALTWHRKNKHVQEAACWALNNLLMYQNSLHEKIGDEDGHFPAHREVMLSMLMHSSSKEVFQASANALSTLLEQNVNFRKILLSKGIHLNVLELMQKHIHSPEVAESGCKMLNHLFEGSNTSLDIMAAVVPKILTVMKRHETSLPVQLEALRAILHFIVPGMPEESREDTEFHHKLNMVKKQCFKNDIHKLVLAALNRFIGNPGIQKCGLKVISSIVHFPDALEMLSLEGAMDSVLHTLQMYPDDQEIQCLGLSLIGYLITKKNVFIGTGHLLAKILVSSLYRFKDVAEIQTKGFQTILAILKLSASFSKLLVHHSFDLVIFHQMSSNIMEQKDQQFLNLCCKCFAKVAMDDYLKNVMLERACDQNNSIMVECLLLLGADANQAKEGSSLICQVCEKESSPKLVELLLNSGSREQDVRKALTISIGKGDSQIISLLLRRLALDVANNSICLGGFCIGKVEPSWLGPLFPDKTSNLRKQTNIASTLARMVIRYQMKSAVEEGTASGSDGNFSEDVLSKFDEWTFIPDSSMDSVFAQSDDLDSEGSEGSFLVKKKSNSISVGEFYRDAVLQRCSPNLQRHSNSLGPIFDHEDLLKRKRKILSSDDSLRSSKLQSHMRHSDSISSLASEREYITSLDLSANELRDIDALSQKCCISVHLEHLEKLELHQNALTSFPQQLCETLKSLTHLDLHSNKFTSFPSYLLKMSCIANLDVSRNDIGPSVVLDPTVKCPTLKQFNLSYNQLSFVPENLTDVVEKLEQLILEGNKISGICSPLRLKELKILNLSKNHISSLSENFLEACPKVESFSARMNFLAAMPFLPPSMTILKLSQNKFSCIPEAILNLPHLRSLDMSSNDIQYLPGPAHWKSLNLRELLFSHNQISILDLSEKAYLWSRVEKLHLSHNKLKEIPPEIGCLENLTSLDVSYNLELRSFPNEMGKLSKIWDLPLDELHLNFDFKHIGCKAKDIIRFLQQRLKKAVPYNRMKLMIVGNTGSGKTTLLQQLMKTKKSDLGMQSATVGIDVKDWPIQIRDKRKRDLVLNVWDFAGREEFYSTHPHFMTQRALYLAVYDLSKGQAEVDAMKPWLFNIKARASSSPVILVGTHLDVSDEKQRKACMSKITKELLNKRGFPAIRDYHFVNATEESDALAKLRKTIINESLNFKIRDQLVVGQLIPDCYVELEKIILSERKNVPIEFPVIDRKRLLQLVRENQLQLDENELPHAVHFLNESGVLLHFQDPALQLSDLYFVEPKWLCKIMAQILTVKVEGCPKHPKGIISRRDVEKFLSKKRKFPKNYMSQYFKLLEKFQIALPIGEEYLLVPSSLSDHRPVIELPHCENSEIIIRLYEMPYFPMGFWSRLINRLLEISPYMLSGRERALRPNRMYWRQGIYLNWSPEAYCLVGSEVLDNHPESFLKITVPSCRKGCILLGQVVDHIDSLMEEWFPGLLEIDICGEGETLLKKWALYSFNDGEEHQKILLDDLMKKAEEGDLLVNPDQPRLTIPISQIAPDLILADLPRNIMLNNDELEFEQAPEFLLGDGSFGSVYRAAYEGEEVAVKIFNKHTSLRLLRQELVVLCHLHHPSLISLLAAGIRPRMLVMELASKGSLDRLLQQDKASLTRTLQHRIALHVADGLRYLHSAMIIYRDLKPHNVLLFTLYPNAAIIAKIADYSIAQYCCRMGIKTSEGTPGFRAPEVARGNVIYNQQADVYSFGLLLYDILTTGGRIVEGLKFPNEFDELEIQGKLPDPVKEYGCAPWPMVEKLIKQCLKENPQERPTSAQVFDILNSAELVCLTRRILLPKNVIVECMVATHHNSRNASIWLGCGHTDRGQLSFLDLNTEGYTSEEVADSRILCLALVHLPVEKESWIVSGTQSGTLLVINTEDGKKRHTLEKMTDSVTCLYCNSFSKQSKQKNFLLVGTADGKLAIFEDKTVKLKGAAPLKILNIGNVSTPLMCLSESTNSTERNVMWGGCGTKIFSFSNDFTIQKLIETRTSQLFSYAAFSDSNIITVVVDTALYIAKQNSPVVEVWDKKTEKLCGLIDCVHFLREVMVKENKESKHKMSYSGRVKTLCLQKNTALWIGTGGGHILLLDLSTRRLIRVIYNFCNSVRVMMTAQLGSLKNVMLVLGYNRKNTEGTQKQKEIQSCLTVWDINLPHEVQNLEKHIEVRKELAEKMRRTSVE

The target of experiment [4] is T1, LRRK2 WT. The experiment in a line: Cell-based NanoBRET target engagement assay in HEK293 cells transfected with LRRK2 WT-NanoLuc fusion vector. Also on record: expressed in transfected cells; host or cells: HEK293 (ATCC). The note with it: compound treatment 1 h. The procedure: as §1, §2
Target sequence in this assay (Q5S007 whole entry): as the sequence (Q5S007 whole entry G2019S) above, with S2019G counted along it

In the case of `Cn1nc(-c2n[nH]c3ccc(S(C)(=O)=O)cc23)cc(N2CCOCC2)c1=O` [Compound 33, 2-methyl-6-(5-methylsulfonyl-1H-indazol-3-yl)-4-morpholino-pyridazin-3-one], the Ki – broadly, a measure of affinity in units of concentration, obtained from inhibition or displacement – at LRRK2 WT [1] is 50 to 100 nM; on LRRK2[G2019S] [2], over 100 nM.
For `Cn1nc(-c2n[nH]c3ccc(OC(F)(F)F)cc23)cc(N2CCOCC2)c1=O` [Compound 22, 2-methyl-4-morpholino-6-[5-(trifluoromethoxy)-1H-indazol-3-yl]pyridazin-3-one], in that order: over 100 nM and over 100 nM.
For `N#CC1(c2ccc3cnn(-c4cnnc(N5CCCC5)c4)c3c2)CCCC1` [Compound 39, 1-[1-(6-pyrrolidin-1-ylpyridazin-4-yl)indazol-6-yl]cyclopentanecarbonitrile], in that order: 20 to 50 nM and 50 to 100 nM.
For `CC(C)Oc1ccc2[nH]nc(-c3cnnc(N4CC(O)C4)c3)c2c1` [Compound 1, 1-[5-(5-isopropoxy-1H-indazol-3-yl)pyridazin-3-yl]azetidin-3-ol], the Ki lay in the range of 10 to 20 nM on LRRK2 WT [1] and 5 to 10 nM on LRRK2[G2019S] [2].
For `Cn1nc(-c2n[nH]c3ccc(-n4cccc4C#N)cc23)cc(N2CCOCC2)c1=O` [Compound 45, 1-[3-(1-methyl-5-morpholino-6-oxo-pyridazin-3-yl)-1H-indazol-5-yl]pyrrole-2-carbonitrile], in that order: at most 10 nM and 10 to 50 nM.
For `Cn1nc(-n2ncc3ccc(C4(C#N)CC4)cc32)cc(N2CCOCC2)c1=O` [Compound 41, 1-[1-(1-methyl-5-morpholino-6-oxo-pyridazin-3-yl)indazol-6-yl]cyclopropanecarbonitrile], in that order: at most 10 nM and 50 to 100 nM.
For `CC(C)(C#N)c1ccc2cnn(-c3cnnc(N4CCCC4)c3)c2c1` [Compound 35, 2-methyl-2-[1-(6-pyrrolidin-1-ylpyridazin-4-yl)indazol-6-yl]propanenitrile], in that order: 20 to 50 nM and 50 to 100 nM.
`N#CC1(c2ccc3cnn(-c4cnnc(N5CCCC5)c4)c3c2)CCCCC1` [Compound 37, 1-[1-(6-pyrrolidin-1-ylpyridazin-4-yl)indazol-6-yl]cyclohexanecarbonitrile]: the Ki at LRRK2 WT [1] and at LRRK2[G2019S] [2] was over 100 nM in each case.
`Cc1nnc(-c2n[nH]c3ccc(OC(C)C)cc23)cc1N1CCOCC1` [Compound 10, 4-[6-(5-isopropoxy-1H-indazol-3-yl)-3-methyl-pyridazin-4-yl]morpholine]: the Ki on LRRK2 WT [1] is at most 10 nM; on LRRK2[G2019S] [2] it was 10 to 50 nM.
For `N#CC1(c2ccc3cnn(-c4cnnc(N5CCCC5)c4)c3c2)CC1` [Compound 36, 1-[1-(6-pyrrolidin-1-ylpyridazin-4-yl)indazol-6-yl]cyclopropanecarbonitrile], in that order: 50 to 100 nM and over 100 nM.
For `O=S1(=O)CCCC1c1ccc2cnn(-c3cnnc(N4CCCC4)c3)c2c1` (centres unmarked) [Compound 34, 2-[1-(6-pyrrolidin-1-ylpyridazin-4-yl)indazol-6-yl]thiolane 1,1-dioxide], in that order: over 100 nM and over 100 nM.
Regarding `CC(C)Oc1cccc2[nH]nc(-c3cc(N4CCOCC4)c(=O)n(C)n3)c12` [Compound 15, 6-(4-isopropoxy-1H-indazol-3-yl)-2-methyl-4-morpholino-pyridazin-3-one], the Ki at LRRK2 WT [1] and at LRRK2[G2019S] [2] was over 100 nM in each case.
Consider `Cn1nc(-n2ncc3ccc(C(C)(C)C#N)cc32)cc(N2CCOCC2)c1=O` [Compound 43, 2-methyl-2-[1-(1-methyl-5-morpholino-6-oxo-pyridazin-3-yl)indazol-6-yl]propanenitrile], for which the Ki on LRRK2 WT [1] was 50 to 100 nM; on LRRK2[G2019S] [2], over 100 nM.
For `CC(C)Oc1ccc2[nH]nc(-c3cnnc(N4CCCC4)c3)c2c1` [Compound 5, 5-isopropoxy-3-(6-pyrrolidin-1-ylpyridazin-4-yl)-1H-indazole], in that order: 10 to 20 nM and at most 5 nM.
For `CC(C)Oc1ccc2[nH]nc(-c3cnnc(N4CCOCC4)n3)c2c1` [Compound 13, 4-[5-(5-isopropoxy-1H-indazol-3-yl)-1,2,4-triazin-3-yl]morpholine], in that order: at most 10 nM and 5 to 10 nM.
On to `Cc1c(OC(C)C)ccc2[nH]nc(-c3cc(N4CCOCC4)c(=O)n(C)n3)c12` [Compound 24, 6-(5-isopropoxy-4-methyl-1H-indazol-3-yl)-2-methyl-4-morpholino-pyridazin-3-one], for which the Ki at LRRK2 WT [1] and on LRRK2[G2019S] [2] was over 100 nM in each case.
On to `Cn1nc(-c2n[nH]c3cc4c(cc23)OCCC4)cc(N2CCOCC2)c1=O` [Compound 31, 2-methyl-4-morpholino-6-(1,6,7,8-tetrahydropyrano[2,3-f]indazol-3-yl)pyridazin-3-one], for which the inhibition constant Ki was 50 to 100 nM at LRRK2 WT [1] and over 100 nM at LRRK2[G2019S] [2].
Turning to `Cn1nc(-c2n[nH]c3ccc(OC4(C)CC4)cc23)cc(N2CCC(O)C(F)CC2)c1=O` (centres unmarked) [Compound 82, 4-(4-fluoro-5-hydroxy-azepan-1-yl)-2-methyl-6-[5-(1-methylcyclopropoxy)-1H-indazol-3-yl]pyridazin-3-one], the IC50 on LRRK2[G2019S] [3] and against LRRK2 WT [4] was at most 50 nM throughout.
Take `Cn1nc(-c2n[nH]c3ccc(OC4(C)CC4)cc23)cc(N2CCOCC(CO)C2)c1=O` (centres unmarked) [Compound 88, 4-[6-(hydroxymethyl)-1,4-oxazepan-4-yl]-2-methyl-6-[5-(1-methylcyclopropoxy)-1H-indazol-3-yl]pyridazin-3-one]: the IC50 against LRRK2[G2019S] [3] and against LRRK2 WT [4] was at most 50 nM in each case.
